SMILES strings stand for the structures. In brackets after ≈: the same amount, converted by molar mass. Read-outs that look alike come from different tables or passages of the source.

The subject of experiment [1] is Mycobacterium tuberculosis H37Rv and clinical isolates 6341 and 6374. As to the kind of experiment: MIC and MBC, classical method, over several strains. Format: cell-based.
Experiment [2] has as its system Mycobacterium tuberculosis clinical isolate 6341. Format: cell-based.
Experiment [3] relates to Mycobacterium smegmatis SG 987. Format: cell-based.
The subject of experiment [4] is Mycobacterium tuberculosis clinical isolate 6374. Type of experiment: cell-based.
In experiment [5] the test system is M. fortuitum B. Particulars: Mycolicibacterium fortuitum, read-out: MIC M.fortuitum.
Experiment [6] relates to M. vaccae IMET 10 10670. Format: cell-based.
Experiment [7] relates to Mycobacterium tuberculosis H37Rv. As to the kind of experiment: Murine TB model (experimental hematogenously disseminated tuberculosis). The following applies: for Survival of animals: Groups 4/5, 25 mg/kg oral. Type of experiment: in vivo, BALB/c line mice.
Where [8] appears, read: Mycolicibacterium smegmatis, SG987, read-out: MIC M. smegmatis.
[9] abbreviates: Mycolicibacterium vaccae, IMET1010670, read-out: MIC M.vaccae.
Where [10] appears, read: 25 mg/kg orally, 42 days after inoculation of the culture medium.

`O=c1nc(N2CCC3(CC2)OCCO3)sc2c([N+](=O)[O-])cc(C(F)(F)F)cc12` [Compound 1, 2-(1,4-dioxa-8-azaspiro[4.5]dec-8-yl)-8-nitro-6-(trifluoromethyl)-1,3-benzothiazin-4-one]: the MBC in experiment [1] (read-out: MBC (µg/mL) mean) came out at 1.75 µg/mL (≈ 4.19 µM); in experiment [2] it was 2.34 µg/mL (≈ 5.61 µM); in experiment [4], 2.34 µg/mL (≈ 5.61 µM). The MIC in experiment [1] (read-out: MIC (µg/mL) mean) amounted to 1.17 µg/mL (≈ 2.8 µM); in experiment [2], 1.56 µg/mL (≈ 3.74 µM); in experiment [3] (Mycolicibacterium smegmatis, SG987; read-out: MIC M. smegmatis) it was 0.0125 µg/mL (≈ 0.0299 µM); in experiment [4], 1.56 µg/mL (≈ 3.74 µM); in experiment [5] it was 0.0125 µg/mL (≈ 0.0299 µM); in experiment [6] (Mycolicibacterium vaccae, IMET1010670; read-out: MIC M.vaccae), 0.00312 µg/mL (≈ 0.00748 µM).

In the case of `O=c1nc(N2CCC3(CC2)OCCO3)sc2c([N+](=O)[O-])cc([N+](=O)[O-])cc12` [Compound 3, 2-(1,4-dioxa-8-azaspiro[4.5]dec-8-yl)-6,8-dinitro-1,3-benzothiazin-4-one], the MIC in experiment [3] (setting [8]) is 0.2 µg/mL (≈ 0.507 µM); in experiment [5] it was 0.006 µg/mL (≈ 0.0152 µM); in experiment [6] (setting [9]) it was 0.0015 µg/mL (≈ 0.0038 µM).

In the case of `CC1COC2(CCN(c3nc(=O)c4cc([N+](=O)[O-])cc([N+](=O)[O-])c4s3)CC2)O1` (stereo not drawn) [Compound 4, 2-(2-methyl-1,4-dioxa-8-azaspiro[4.5]decyl)-6,8-dinitro-1,3-benzothiazin-4-one], the MIC in experiment [3] (setting [8]) turned out to be 0.2 µg/mL (≈ 0.49 µM); in experiment [5], 0.003 µg/mL (≈ 0.00735 µM); in experiment [6] (setting [9]) it was 0.003 µg/mL (≈ 0.00735 µM).

Regarding `O=c1nc(N2CCC3(CC2)OCCCCO3)sc2c([N+](=O)[O-])cc([N+](=O)[O-])cc12` [Compound 7, 2-(7,12-dioxa-3-azaspiro[5.6]dodec-3-yl)-6,8-dinitro-1,3-benzothiazin-4-one], the MIC stood at 0.78 µg/mL (≈ 1.85 µM) in experiment [3] (setting [8]), 0.003 µg/mL (≈ 0.0071 µM) in experiment [5] and 0.003 µg/mL (≈ 0.0071 µM) in experiment [6] (setting [9]).

`Cc1c([N+](=O)[O-])cc2c(=O)nc(N3CCC4(CC3)OCCO4)sc2c1[N+](=O)[O-]` [Compound 8, 2-(1,4-dioxa-8-azaspiro[4.5]dec-8-yl)-7-methyl-6,8-dinitro-1,3-benzothiazin-4-one]: the MIC in experiment [3] (setting [8]) was 0.4 µg/mL (≈ 0.979 µM); in experiment [5], 0.025 µg/mL (≈ 0.0612 µM); in experiment [6] (setting [9]), 0.025 µg/mL (≈ 0.0612 µM).

For `NNC(=O)c1ccncc1` [Isoniazid (INH), Isoniazid, reference compound], in experiment [7] (25 mg/kg orally, daily 6 times per week, four-score scale, liver, spleen and lungs), the Injury index is 1,2. Further, the “Efficacy index (%)” value in experiment [7] (25 mg/kg orally, 100% - injury index of group / injury index of control x 100) is 70,5%. Also, the “right lung Culture, without dilution CFU” value in experiment [7] (setting [10]) is reported as “∼ 40 CFU”. Further, the “spleen Culture, without dilution CFU” value in experiment [7] (setting [10]) is given as “∼ 40 CFU”. Moreover, the Survival of animals in experiment [7] (day of treatment 1, of 10 animals) amounted to 10; in experiment [7] (day of treatment 2, of 10 animals), 10; in experiment [7] (day of treatment 3, of 10 animals), 10; in experiment [7] (day of treatment 4, of 10 animals) it was 10; in experiment [7] (day of treatment 5, of 10 animals), 10; in experiment [7] (day of treatment 6, of 10 animals), 10. The Survival of animals in experiment [7] (day of treatment 7, of 10 animals) is given as 10; in experiment [7] (day of treatment 8, of 10 animals), 10; in experiment [7] (day of treatment 9, of 10 animals) it was 10; in experiment [7] (day of treatment 10, of 10 animals) it was 10; in experiment [7] (day of treatment 11, of 10 animals), 10; in experiment [7] (day of treatment 12, of 10 animals) it was 10. Moreover, the Survival of animals in experiment [7] (day of treatment 13, of 10 animals) is recorded as 10; in experiment [7] (day of treatment 14, of 10 animals), 10; in experiment [7] (day of treatment 15, of 10 animals), 10; in experiment [7] (day of treatment 16, of 10 animals) it was 10; in experiment [7] (day of treatment 17, of 10 animals) it was 10; in experiment [7] (day of treatment 18, of 10 animals) it was 10. In addition, the Survival of animals in experiment [7] (day of treatment 19, of 10 animals) stood at 10; in experiment [7] (day of treatment 20, of 10 animals), 10; in experiment [7] (day of treatment 21, of 10 animals), 10; in experiment [7] (day of treatment 22, of 10 animals), 10; in experiment [7] (day of treatment 23, of 10 animals) it was 10; in experiment [7] (day of treatment 24, of 10 animals), 10. Further, the Survival of animals in experiment [7] (day of treatment 25, of 10 animals) was 10; in experiment [7] (day of treatment 26, of 10 animals), 10; in experiment [7] (day of treatment 27), 100%. Moreover, the MBC in experiment [2], in experiment [2] (read-out: MBC (µg/mL) mean), in experiment [4] and in experiment [4] (read-out: MBC (µg/mL) mean) was more than 100 µg/mL in each case. Further, the MIC in experiment [2], in experiment [2] (read-out: MIC (µg/mL) mean), in experiment [4] and in experiment [4] (read-out: MIC (µg/mL) mean) was more than 100 µg/mL in each case.

These data come from patent EP2181998B1, “New benzothiazinone derivative and its use as antibacterial agent” (priority 2006, dated 2007).
